{"source": "patent US20240082222A1", "about": "“4-CHLORO-N-[2-[(4-CHLOROPHENYL)METHYL]-3-OXO-1,2,4-THIADIAZOL-5-YL]BENZAMIDE FOR USE IN MEDICINE” (Betagenon AB, priority 2021, published 2024)", "experiment": "Pharmacokinetic study in humans, sodium salt tablets, multiple dose (Example 3)", "type": "in vivo, human", "experimental": "An open, randomised, parallel-group study was conducted to evaluate the exposure and safety of 4-chloro-N-[2-[(4-chlorophenyl)methyl]-3-oxo-1,2,4-thiadiazol-5-yl]benzamide sodium salt tablets in doses of 212.12 mg and 424.24 mg (equivalent to 200 mg and 400 mg doses of 4-chloro-N-[2-[(4-chlorophenyl)methyl]-3-oxo-1,2,4-thiadiazol-5-yl]benzamide) at steady state in healthy volunteers (hereafter referred to as subjects).\nEach “400 mg” tablet contained 424.24 mg of a sodium salt of 4-chloro-N-[2-[(4-chlorophenyl)methyl]-3-oxo-1,2,4-thiadiazol-5-yl]benzamide (Compound of formula II) which corresponds to 400 mg of the parent compound 4-chloro-N-[2-[(4-chlorophenyl)methyl]-3-oxo-1,2,4-thiadiazol-5-yl]benzamide.\nTwenty (20) subjects were randomised (1:1) to treatment with either 200 mg (1 tablet of 200 mg) or 400 mg (1 tablet of 400 mg) of the test substance.\nA screening visit (Visit 1) was performed within 28 days before randomisation and the start of IMP administration. The subjects arrived at the research clinic on Day 1 (Visit 2), randomised, and received the first administration of the test substance (200 mg or 400 mg as randomised).\nThe subjects returned to the clinic in the morning of Day 2 (Visit 3) for pre-dose PK sampling and subsequent administration of the test substance.\nBefore leaving the clinic, the subjects were provided with the test substance for 18 days once daily self-administration at home (Day 3 to Day 20).\nAfter 18 days of home-based self-administration of the test substance, the subjects returned to the clinic in the morning of Day 21 (Visit 5) for pre-dose PK sampling and subsequent administration of the last dose of the test substance. The subjects remained at the clinic for at least 8 hours post-dose for safety assessments and additional PK sampling. In the morning of Day 22 (Visit 6), the subjects came for a last visit to the clinic for a final PK sample 24 hours after the last dose.\nVenous blood samples (approximately 5 mL) for the determination of plasma concentrations of 4-chloro-N-[2-[(4-chlorophenyl)methyl]-3-oxo-1,2,4-thiadiazol-5-yl]benzamide after administration of the test substance were collected through an indwelling venous catheter on Days 2, 21 and 22.\nThe blood samples were collected in pre-labelled Li-Heparin tubes. All the collected blood samples were be centrifuged at 1500 G for 10 minutes to separate plasma within 60 minutes from the sample is drawn. The separated plasma from each blood sample was be divided into 2 aliquots in pre-labelled polypropylene cryotubes (A and B samples, approximately 750 μL in each tube) and frozen at <−70° C.\nSamples for determination of plasma concentrations of 4-chloro-N-[2-[(4-chlorophenyl)methyl]-3-oxo-1,2,4-thiadiazol-5-yl]benzamide were analysed by Lablytica Life Science AB, Uppsala, Sweden by means of a validated LS-MS/MS method.\nThe data of plasma concentration to respective time points for the analyte (4-chloro-N-[2-[(4-chlorophenyl)methyl]-3-oxo-1,2,4-thiadiazol-5-yl]benzamide) were used for the pharmacokinetic analysis. Pharmacokinetic analysis was performed using non-compartmental analysis (NCA) module of Phoenix WinNonlin 8.1 software to determine the following pharmacokinetic parameters after multiple dose administration of test substance.\nPrimary endpoint: • Cmax, AUC0-last, Tmax at steady state Day 21 in each dose group.", "key": {"[1]": {"settings": "200 mg Dose Group, tablet once daily, Day 21, individual subjects, listed as O304 Na salt"}, "[2]": {"settings": "212 mg sodium salt in tablet form"}, "[3]": {"settings": "400 mg Dose Group, tablet once daily, Day 21, individual subjects, listed as O304 Na salt"}}, "note": "“And” between values parts separate entries of the source, which are not always exact repeats. Equal entries are not always repeated. Structures can show the parent of a compound that is named as a salt. Where two headings read alike, the source gives them in different places."}
{"smiles": "O=C(Nc1nc(=O)n(Cc2ccc(Cl)cc2)s1)c1ccc(Cl)cc1", "note": "[Compound of formula II, sodium salt of 4-chloro-N-[2-[(4-chlorophenyl)methyl]-3-oxo-1,2,4-thiadiazol-5-yl]benzamide]", "values": [{"measurement": "Tlast", "setting": "200 mg Dose Group, tablet once daily, Day 21, Mean", "result": 24.01, "unit": "h"}, {"measurement": "Tlast", "setting": "200 mg Dose Group, tablet once daily, Day 21, Median", "result": 24.0, "unit": "h"}, {"measurement": "Clast", "setting": "[1]", "result": "80.1 µg/mL and 109 µg/mL and 144 µg/mL and 51.7 µg/mL and 76.9 µg/mL and 62.3 µg/mL and 65.1 µg/mL and 81.3 µg/mL and 53.4 µg/mL"}, {"measurement": "Tlast", "setting": "[1]", "result": "24.0 h (8×) and 24.1 h"}, {"measurement": "Tmax", "setting": "[1]", "result": "24.0 h and 0.00 h and 2.00 h and 4.00 h"}, {"measurement": "increase in systemic accumulation from Day 1 to Day 21", "setting": "[2]", "result": "approximately seven-fold"}, {"measurement": "increase in systemic exposure, tablet compared to capsules containing 200 mg", "setting": "[2]", "result": "up to two-fold"}, {"measurement": "Tlast", "setting": "400 mg Dose Group, tablet once daily, Day 21, Mean", "result": 24.07, "unit": "h"}, {"measurement": "Tlast", "setting": "400 mg Dose Group, tablet once daily, Day 21, Median", "result": 24.0, "unit": "h"}, {"measurement": "AUClast", "setting": "[3]", "result": "4790 µg·h/mL and 3600 µg·h/mL and 2450 µg·h/mL and 2950 µg·h/mL and 3550 µg·h/mL and 2800 µg·h/mL and 2460 µg·h/mL"}, {"measurement": "Clast", "setting": "[3]", "result": "116 µg/mL and 201 µg/mL and 151 µg/mL and 96.7 µg/mL and 135 µg/mL and 144 µg/mL and 111 µg/mL and 106 µg/mL and 100 µg/mL"}, {"measurement": "Cmax", "setting": "[3]", "result": "201 µg/mL and 169 µg/mL and 106 µg/mL and 135 µg/mL and 168 µg/mL and 124 µg/mL and 105 µg/mL"}, {"measurement": "Tlast", "setting": "[3]", "result": "24.0 h (6×) and 24.4 h and 24.1 h (2×)"}, {"measurement": "Tmax", "setting": "[3]", "result": "24.4 h and 4.00 h and 8.02 h and 24.1 h and 24.0 h"}, {"measurement": "increase in systemic accumulation from Day 1 to Day 21", "setting": "424 mg sodium salt in tablet form", "result": "approximately five-fold"}, {"measurement": "AUC(0-t)", "setting": "human, plasma, oral, 200 mg, 200 mg Dose Group, tablet once daily, Day 21, Mean", "result": 1940, "unit": "µg·h/mL"}, {"measurement": "concentration at 24 h", "setting": "human, plasma, oral, 200 mg, 200 mg Dose Group, tablet once daily, Day 21, Mean, read-out: Clast", "result": 80.4, "unit": "µg/mL"}, {"measurement": "Cmax", "setting": "human, plasma, oral, 200 mg, 200 mg Dose Group, tablet once daily, Day 21, Mean, read-out: Cmax", "result": 86.8, "unit": "µg/mL"}, {"measurement": "Tmax", "setting": "human, plasma, oral, 200 mg, 200 mg Dose Group, tablet once daily, Day 21, Mean, read-out: Tmax", "result": 10.9, "unit": "h"}, {"measurement": "AUC(0-t)", "setting": "human, plasma, oral, 200 mg, 200 mg Dose Group, tablet once daily, Day 21, Median", "result": 1720, "unit": "µg·h/mL"}, {"measurement": "concentration at 24 h", "setting": "human, plasma, oral, 200 mg, 200 mg Dose Group, tablet once daily, Day 21, Median, read-out: Clast", "result": 76.9, "unit": "µg/mL"}, {"measurement": "Cmax", "setting": "human, plasma, oral, 200 mg, 200 mg Dose Group, tablet once daily, Day 21, Median, read-out: Cmax", "result": 77.1, "unit": "µg/mL"}, {"measurement": "Tmax", "setting": "human, plasma, oral, 200 mg, 200 mg Dose Group, tablet once daily, Day 21, Median, read-out: Tmax", "result": 8, "unit": "h"}, {"measurement": "concentration at 24 h", "setting": "human, plasma, oral, 200 mg, 200 mg dose group (212.12 mg sodium salt tablet once daily), 24 h after dose of Day 1, read-out: Clast at 24 hours, Mean", "result": 11.4, "unit": "µg/mL"}, {"measurement": "concentration at 24 h", "setting": "human, plasma, oral, 200 mg, 200 mg dose group (212.12 mg sodium salt tablet once daily), 24 h after dose of Day 1, read-out: Clast at 24 hours, Median", "result": 11.2, "unit": "µg/mL"}, {"measurement": "concentration at 24 h", "setting": "human, plasma, oral, 200 mg, 200 mg dose group (212.12 mg sodium salt tablet once daily), 24 h after dose of Day 21, read-out: Clast at 24 hours, Mean", "result": 80.4, "unit": "µg/mL"}, {"measurement": "concentration at 24 h", "setting": "human, plasma, oral, 200 mg, 200 mg dose group (212.12 mg sodium salt tablet once daily), 24 h after dose of Day 21, read-out: Clast at 24 hours, Median", "result": 76.9, "unit": "µg/mL"}, {"measurement": "AUC(0-t)", "setting": "human, plasma, oral, 400 mg, 400 mg Dose Group, tablet once daily, Day 21, Mean", "result": 3110, "unit": "µg·h/mL"}, {"measurement": "concentration at 24 h", "setting": "human, plasma, oral, 400 mg, 400 mg Dose Group, tablet once daily, Day 21, Mean, read-out: Clast", "result": 129, "unit": "µg/mL"}, {"measurement": "Cmax", "setting": "human, plasma, oral, 400 mg, 400 mg Dose Group, tablet once daily, Day 21, Mean, read-out: Cmax", "result": 138, "unit": "µg/mL"}, {"measurement": "Tmax", "setting": "human, plasma, oral, 400 mg, 400 mg Dose Group, tablet once daily, Day 21, Mean, read-out: Tmax", "result": 11.2, "unit": "h"}, {"measurement": "AUC(0-t)", "setting": "human, plasma, oral, 400 mg, 400 mg Dose Group, tablet once daily, Day 21, Median", "result": 2930, "unit": "µg·h/mL"}, {"measurement": "concentration at 24 h", "setting": "human, plasma, oral, 400 mg, 400 mg Dose Group, tablet once daily, Day 21, Median, read-out: Clast", "result": 116, "unit": "µg/mL"}, {"measurement": "Cmax", "setting": "human, plasma, oral, 400 mg, 400 mg Dose Group, tablet once daily, Day 21, Median, read-out: Cmax", "result": 132, "unit": "µg/mL"}, {"measurement": "Tmax", "setting": "human, plasma, oral, 400 mg, 400 mg Dose Group, tablet once daily, Day 21, Median, read-out: Tmax", "result": 4.02, "unit": "h"}, {"measurement": "AUC(0-t)", "setting": "human, plasma, oral, 400 mg, 400 mg Dose Group, tablet once daily, Day 21, individual subjects", "result": 2930, "unit": "µg·h/mL"}, {"measurement": "Cmax", "setting": "human, plasma, oral, 400 mg, 400 mg Dose Group, tablet once daily, Day 21, individual subjects, read-out: Cmax", "result": 132, "unit": "µg/mL"}, {"measurement": "concentration at 24 h", "setting": "human, plasma, oral, 400 mg, 400 mg dose group (424.24 mg sodium salt tablet once daily), 24 h after dose of Day 1, read-out: Clast at 24 hours, Mean", "result": 24.9, "unit": "µg/mL"}, {"measurement": "concentration at 24 h", "setting": "human, plasma, oral, 400 mg, 400 mg dose group (424.24 mg sodium salt tablet once daily), 24 h after dose of Day 1, read-out: Clast at 24 hours, Median", "result": 21.5, "unit": "µg/mL"}, {"measurement": "concentration at 24 h", "setting": "human, plasma, oral, 400 mg, 400 mg dose group (424.24 mg sodium salt tablet once daily), 24 h after dose of Day 21, read-out: Clast at 24 hours, Mean", "result": 129, "unit": "µg/mL"}, {"measurement": "concentration at 24 h", "setting": "human, plasma, oral, 400 mg, 400 mg dose group (424.24 mg sodium salt tablet once daily), 24 h after dose of Day 21, read-out: Clast at 24 hours, Median", "result": 116, "unit": "µg/mL"}, {"measurement": "peak blood plasma concentration", "setting": "repeated dosing of 212 mg in the form of a tablet", "result": "≥ 85", "unit": "µg/mL"}, {"measurement": "accumulation in the blood plasma after repeat dosing", "setting": "tablets, once daily", "result": "substantial accumulation"}]}
